Experimental data published in patent publication US10030007B2, “Quinazolin-THF-amines as PDE1 inhibitors” (H. Lundbeck A/S, priority 2013, dated 2018).

Legend:
Format in all cases: biochemical
Conditions in all cases: 15 nM tritium labelled cAMP, 1 h at room temperature, SPA beads
PDE1C = PDE1C (Homo sapiens, UniProt Q14123); assay: PDE1 inhibition assay (SPA), PDE1C
Method: (§1) PDE1A, PDE1B and PDE1C assays were performed as follows: the assays was performed in 60 μL samples containing a fixed amount of the PDE1 enzyml (sufficient to convert 20-25% of the cyclic nucleotide substrate), a buffer (50 mM HEPES pH 7.6; 10 mM MgCl2; 0.02% Tween20), 0.1 mg/ml BSA, 15 nM tritium labelled cAMP and varying amounts of inhibitors. Reactions were initiated by addition of the cyclic nucleotide substrate, and reactions were allowed to proceed for 1 h at room temperature before being terminated through mixing with 20 μL (0.2 mg) yttrium silicate SPA beads (PerkinElmer). The beads were allowed to settle for 1 h in the dark before the plates were counted in a Wallac 1450 Microbeta counter. The measured signals were converted to activity relative to an uninhibited control (100%) and IC50 values were calculated using XlFit (model 205, IDBS).

PDE1A = PDE1A (Homo sapiens, UniProt P54750); assay: PDE1 inhibition assay (SPA), PDE1A
Chain of PDE1A (P54750 whole entry): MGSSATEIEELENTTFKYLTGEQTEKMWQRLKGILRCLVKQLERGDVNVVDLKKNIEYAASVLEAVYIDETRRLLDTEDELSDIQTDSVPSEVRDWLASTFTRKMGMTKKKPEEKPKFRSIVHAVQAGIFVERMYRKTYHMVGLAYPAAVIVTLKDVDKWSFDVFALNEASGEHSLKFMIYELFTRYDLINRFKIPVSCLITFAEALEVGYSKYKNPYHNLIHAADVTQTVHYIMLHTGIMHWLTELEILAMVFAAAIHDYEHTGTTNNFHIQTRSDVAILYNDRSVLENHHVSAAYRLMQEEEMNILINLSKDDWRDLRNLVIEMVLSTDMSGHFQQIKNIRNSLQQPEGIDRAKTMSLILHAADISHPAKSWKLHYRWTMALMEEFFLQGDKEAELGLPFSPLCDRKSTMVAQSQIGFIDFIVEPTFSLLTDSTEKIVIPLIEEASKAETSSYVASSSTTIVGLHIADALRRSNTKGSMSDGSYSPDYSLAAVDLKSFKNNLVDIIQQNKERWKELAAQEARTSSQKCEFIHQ
Method: as §1

PDE1B = PDE1B (Homo sapiens, UniProt Q01064); assay: PDE1 inhibition assay (SPA), PDE1B
Chain of PDE1B (Q01064 whole entry): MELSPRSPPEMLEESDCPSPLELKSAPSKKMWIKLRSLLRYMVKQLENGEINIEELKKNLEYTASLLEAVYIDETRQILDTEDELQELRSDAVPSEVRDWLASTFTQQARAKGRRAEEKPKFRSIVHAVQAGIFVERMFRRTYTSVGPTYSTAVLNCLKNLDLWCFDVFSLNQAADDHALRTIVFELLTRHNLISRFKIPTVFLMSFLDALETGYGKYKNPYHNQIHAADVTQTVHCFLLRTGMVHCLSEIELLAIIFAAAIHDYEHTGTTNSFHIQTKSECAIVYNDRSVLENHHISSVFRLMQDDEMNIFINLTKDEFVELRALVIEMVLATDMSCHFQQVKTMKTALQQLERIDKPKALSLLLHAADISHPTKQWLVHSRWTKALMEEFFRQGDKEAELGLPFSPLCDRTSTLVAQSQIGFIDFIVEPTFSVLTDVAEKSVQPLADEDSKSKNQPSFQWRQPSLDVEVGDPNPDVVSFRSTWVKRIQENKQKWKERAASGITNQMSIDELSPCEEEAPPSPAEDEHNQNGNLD
Method: as §1

Chain of PDE1C (Q14123 whole entry): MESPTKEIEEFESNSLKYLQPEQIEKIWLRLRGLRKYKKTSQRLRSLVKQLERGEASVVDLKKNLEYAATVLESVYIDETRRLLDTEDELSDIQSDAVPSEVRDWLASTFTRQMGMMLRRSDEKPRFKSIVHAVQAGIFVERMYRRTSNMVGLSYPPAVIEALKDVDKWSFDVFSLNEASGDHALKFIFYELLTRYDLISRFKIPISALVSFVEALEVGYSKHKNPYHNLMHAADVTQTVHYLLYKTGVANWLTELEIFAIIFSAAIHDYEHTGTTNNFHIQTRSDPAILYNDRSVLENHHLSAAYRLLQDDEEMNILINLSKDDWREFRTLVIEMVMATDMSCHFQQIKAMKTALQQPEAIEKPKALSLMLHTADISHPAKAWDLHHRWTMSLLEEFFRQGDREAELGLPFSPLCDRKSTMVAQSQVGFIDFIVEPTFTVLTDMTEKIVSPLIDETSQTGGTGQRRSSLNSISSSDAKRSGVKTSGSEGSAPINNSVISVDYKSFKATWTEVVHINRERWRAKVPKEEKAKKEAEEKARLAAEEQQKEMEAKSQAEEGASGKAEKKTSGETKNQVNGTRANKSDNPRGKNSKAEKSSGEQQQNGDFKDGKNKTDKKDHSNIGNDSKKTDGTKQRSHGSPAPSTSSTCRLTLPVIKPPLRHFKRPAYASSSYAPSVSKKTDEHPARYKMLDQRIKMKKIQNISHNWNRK

Structure (SMILES) | IC50 (PDE1C) | IC50 (PDE1A) | IC50 (PDE1B)
COc1ccc2c(N[C@@H]3CCO[C@H]3C3CC3)ncnc2c1OC (relative stereo) [Compound 2, trans-N-(-2-cyclopropyltetrahydrofuran-3-yl)-7,8-dimethoxyquinazolin-4-amine] | 1300 nM | 2400 nM | 260 nM
COc1ccc2c(NC3CCOC3C3CC3)ncnc2c1OC (stereo not drawn) [Compound 25, N-(2-Cyclopropyltetrahydrofuran-3-yl)-7,8-dimethoxyquinazolin-4-amine] | 1300 nM | 2400 nM | 260 nM
